From ChEMBL document CHEMBL1909046, “DrugMatrix in vitro pharmacology data”

Legend:
[1] = DRUGMATRIX: Phorbol Ester radioligand binding (ligand: [3H] PDBu); type: cell membranes, Mus musculus, ICR, Brain, Membrane; details: Not Active = under 50% inhibition at 10 µM
[2] = molecular target: T1, Neuropeptide Y receptor type 1 (Homo sapiens, UniProt P25929); type: cell membranes, Membrane; details: sk-n-mc; note: in other assays of this panel Not Active means under 50% inhibition at 10 µM
T1 sequence (P25929 whole entry): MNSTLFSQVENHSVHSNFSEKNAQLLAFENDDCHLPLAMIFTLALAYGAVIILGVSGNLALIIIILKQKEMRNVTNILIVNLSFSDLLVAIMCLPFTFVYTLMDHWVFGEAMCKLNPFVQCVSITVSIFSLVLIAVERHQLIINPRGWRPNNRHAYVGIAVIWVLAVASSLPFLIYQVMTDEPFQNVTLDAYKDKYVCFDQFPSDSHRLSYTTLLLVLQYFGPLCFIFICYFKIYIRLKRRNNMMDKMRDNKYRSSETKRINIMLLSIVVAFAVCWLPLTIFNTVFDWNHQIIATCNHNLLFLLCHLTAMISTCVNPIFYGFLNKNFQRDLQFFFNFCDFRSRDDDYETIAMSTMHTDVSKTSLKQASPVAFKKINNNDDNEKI

[3] = molecular target: T2, C-C chemokine receptor type 4 (Homo sapiens, UniProt P51679); type: cell membranes, Membrane; details: chem-1; note: in other assays of this panel Not Active means under 50% inhibition at 10 µM
T2 sequence (P51679 whole entry): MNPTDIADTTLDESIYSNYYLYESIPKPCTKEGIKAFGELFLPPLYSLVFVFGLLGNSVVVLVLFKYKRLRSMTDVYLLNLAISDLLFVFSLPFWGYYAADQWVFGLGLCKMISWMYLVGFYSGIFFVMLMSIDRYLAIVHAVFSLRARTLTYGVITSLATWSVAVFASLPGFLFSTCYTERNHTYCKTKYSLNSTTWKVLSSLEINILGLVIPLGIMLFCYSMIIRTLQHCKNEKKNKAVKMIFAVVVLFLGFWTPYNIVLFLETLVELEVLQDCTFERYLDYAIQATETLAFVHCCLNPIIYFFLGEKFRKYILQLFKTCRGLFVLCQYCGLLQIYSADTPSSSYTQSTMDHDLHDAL

[4] = molecular target: Aldo-keto reductase family 1 member B1 (Rattus norvegicus, UniProt P07943); test: biochemical; type: tissue-based, Lens of camera-type eye;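 note: inhibition of aldose reductase enzyme activity, measured with DL-glyceraldehyde as the substrate; in other assays of this panel Not Active means under 50% inhibition at 10 µM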
[5] = DRUGMATRIX: Atrial Natriuretic Factor (ANF) radioligand binding (ligand: [125I] ANF (rat)); type: cell membranes, Cavia porcellus, Dunkin-Hartley, Adrenal gland, Membrane; details: Not Active = under 50% inhibition at 10 µM
[6] = DRUGMATRIX: Leukotriene, BLT (LTB4) radioligand binding (ligand: [3H]LTB4); type: cell membranes, Membrane; details: u-937; Not Active = under 50% inhibition at 10 µM
[7] = molecular target: T3, Alpha-1A adrenergic receptor (Rattus norvegicus, UniProt P43140); test: DRUGMATRIX: Alpha-1A adrenergic receptor radioligand binding (ligand: prazosin); type: cell membranes, Wistar, Submaxillary gland, Membrane; details: Not Active = under 50% inhibition at 10 µM
T3 sequence (P43140 whole entry): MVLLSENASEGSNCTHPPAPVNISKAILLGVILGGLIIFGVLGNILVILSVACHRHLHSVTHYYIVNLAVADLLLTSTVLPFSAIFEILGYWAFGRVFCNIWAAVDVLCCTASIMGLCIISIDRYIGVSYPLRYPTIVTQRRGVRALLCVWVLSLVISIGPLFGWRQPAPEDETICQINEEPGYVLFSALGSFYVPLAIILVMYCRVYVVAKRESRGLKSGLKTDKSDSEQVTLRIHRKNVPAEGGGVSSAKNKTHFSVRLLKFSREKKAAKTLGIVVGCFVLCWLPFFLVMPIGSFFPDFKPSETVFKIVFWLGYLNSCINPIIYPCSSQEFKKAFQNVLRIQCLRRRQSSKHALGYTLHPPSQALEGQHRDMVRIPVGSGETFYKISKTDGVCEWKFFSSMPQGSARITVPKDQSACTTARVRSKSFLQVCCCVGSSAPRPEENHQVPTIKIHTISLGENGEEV

[8] = DRUGMATRIX: Glutamate, AMPA radioligand binding (ligand: [3H] AMPA); type: cell membranes, Rattus norvegicus, Wistar, Cerebral cortex, Membrane; details: Not Active = under 50% inhibition at 10 µM

Row | SMILES | IC50 [1] | Ki [1] | IC50 [2] | IC50 [3] | IC50 ([4]; read-out: IC50) [µM] | IC50 [5] | Ki [5] | IC50 [6] | Ki [6] | IC50 [7] | IC50 [8] | Ki [8] | IC50 [4]
1 | O=C(/C=C/c1ccc(O)c(O)c1)OCCc1ccccc1 [CAFFEIC ACID PHENETHYL ESTER] | Not Active | Not Active | Not Active | Not Active | 1.41 | Not Active | Not Active | Not Active | Not Active | Not Active | Not Active | Not Active | 
2 | COc1cc(CNC(=O)CCCC/C=C/C(C)C)ccc1O [CAPSAICIN] | Not Active | Not Active | Not Active | Not Active |  | Not Active | Not Active | Not Active | Not Active | Not Active | Not Active | Not Active | Not Active
3 | NC(=O)N1c2ccccc2C=Cc2ccccc21 [CARBAMAZEPINE] | Not Active | Not Active | Not Active | Not Active |  | Not Active | Not Active | Not Active | Not Active | Not Active | Not Active | Not Active | Not Active
4 | CCOC(=O)n1ccn(C)c1=S [CARBIMAZOLE] | Not Active | Not Active | Not Active | Not Active |  | Not Active | Not Active | Not Active | Not Active | Not Active | Not Active | Not Active | Not Active
5 | Oc1ccccc1O [CATECHOL] | Not Active | Not Active | Not Active | Not Active |  | Not Active | Not Active | Not Active | Not Active | Not Active | Not Active | Not Active | Not Active
6 | CO[C@@]1(NC(=O)CSCC#N)C(=O)N2C(C(=O)O)=C(CSc3nnnn3C)CS[C@@H]21 [CEFMETAZOLE] | Not Active | Not Active | Not Active | Not Active |  | Not Active | Not Active | Not Active | Not Active | Not Active | Not Active | Not Active | Not Active
7 | CN(C(=O)CCCOc1ccc2[nH]c(=O)ccc2c1)C1CCCCC1 [CILOSTAMIDE] | Not Active | Not Active | Not Active | Not Active |  | Not Active | Not Active | Not Active | Not Active | Not Active | Not Active | Not Active | Not Active
8 | CC(C)(Oc1ccc(C2CC2(Cl)Cl)cc1)C(=O)O (stereo not drawn) [CIPROFIBRATE] | Not Active | Not Active | Not Active | Not Active |  | Not Active | Not Active | Not Active | Not Active | Not Active | Not Active | Not Active | Not Active
9 | Nc1nc(Cl)nc2c1ncn2[C@H]1C[C@H](O)[C@@H](CO)O1 [CLADRIBINE] | Not Active | Not Active | Not Active | Not Active |  | Not Active | Not Active | Not Active | Not Active | Not Active | Not Active | Not Active | Not Active
10 | CC[C@H]1OC(=O)[C@H](C)[C@@H](O[C@H]2C[C@@](C)(OC)[C@@H](O)[C@H](C)O2)[C@H](C)[C@@H](O[C@@H]2O[C@H](C)C[C@H](N(C)C)[C@H]2O)[C@](C)(OC)C[C@@H](C)C(=O)[C@H](C)[C@@H](O)[C@]1(C)O [CLARITHROMYCIN] | Not Active | Not Active | Not Active | Not Active |  | Not Active | Not Active | Not Active | Not Active | Not Active | Not Active | Not Active | Not Active
11 | CCC[C@@H]1C[C@@H](C(=O)N[C@@H]([C@H]2O[C@H](SC)[C@H](O)[C@@H](O)[C@H]2O)[C@H](C)Cl)N(C)C1 [CLINDAMYCIN] | Not Active | Not Active | Not Active | Not Active |  | Not Active | Not Active | Not Active | Not Active | Not Active | Not Active | Not Active | Not Active
12 | O=C(O)c1cc(=O)c2c(OCC(O)COc3cccc4oc(C(=O)O)cc(=O)c34)cccc2o1 [CROMOLYN] | Not Active | Not Active | Not Active | Not Active |  | Not Active | Not Active | Not Active | Not Active | Not Active | Not Active | Not Active | Not Active
13 | O=P1(N(CCCl)CCCl)NCCCO1 (stereo not drawn) [CYCLOPHOSPHAMIDE ANHYDROUS] | Not Active | Not Active | Not Active | Not Active |  | Not Active | Not Active | Not Active | Not Active | Not Active | Not Active | Not Active | Not Active
14 | CC(=O)O[C@]1(C(C)=O)CC[C@H]2[C@@H]3C=C(Cl)C4=CC(=O)[C@@H]5C[C@@H]5[C@]4(C)[C@H]3CC[C@@]21C [CYPROTERONE ACETATE] | Not Active | Not Active | Not Active | Not Active |  | Not Active | Not Active | Not Active | Not Active | Not Active | Not Active | Not Active | Not Active
15 | Nc1nc(N)nc(NC2CC2)n1 [CYROMAZINE] | Not Active | Not Active | Not Active | Not Active |  | Not Active | Not Active | Not Active | Not Active | Not Active | Not Active | Not Active | Not Active
16 | C#C[C@]1(O)CC[C@H]2[C@@H]3CCC4=Cc5oncc5C[C@]4(C)[C@H]3CC[C@@]21C [DANAZOL] | Not Active | Not Active | Not Active | Not Active |  | Not Active | Not Active | Not Active | Not Active | Not Active | Not Active | Not Active | Not Active
17 | CCN[C@@H](C)Cc1cccc(C(F)(F)F)c1 [DEXFENFLURAMINE] | Not Active | Not Active | Not Active | Not Active |  | Not Active | Not Active | Not Active | Not Active | Not Active | Not Active | Not Active | Not Active
18 | C[C@H](C(=O)O)c1cccc(C(=O)c2ccccc2)c1 [DEXKETOPROFEN] | Not Active | Not Active | Not Active | Not Active |  | Not Active | Not Active | Not Active | Not Active | Not Active | Not Active | Not Active | Not Active
19 | CN1C(=O)CN=C(c2ccccc2)c2cc(Cl)ccc21 [DIAZEPAM] | Not Active | Not Active | Not Active | Not Active |  | Not Active | Not Active | Not Active | Not Active | Not Active | Not Active | Not Active | Not Active
